The data set can be described thus: Human HepG2 cell viability assay in 384 well format. Format: toxicity, cell-based. Also noted: dose 125 nL, time 70.5 hour; concentration not given beside the values. The settings on record: HepG2 cells, read-out: Inhibition.
Take `CC(C)c1nccn1CCC(=O)NCC(C)(O)c1ccco1` (stereo not drawn): the cytotoxicity at 70.5 h was -5.68%.
The same measure for `CC(C)COC(=O)N1CCCN(C(C)c2nc(C(C)C)no2)CC1` (stereo not drawn): -3.98%; for `CCc1nnc(C(C)N2CCCN(C(=O)OCC(C)C)CC2)o1` (stereo not drawn): 7.35%; for `O=C(c1ccn(-c2ccc(F)cc2)n1)N(CCO)Cc1cccnc1`: 15.5%.
Regarding `Cc1noc(C)c1CN(C)CC1CC(C2CCCCC2)=NO1` (stereo not drawn), the cytotoxicity at 70.5 h is -2.46%.
To `CC(C)c1nc(CNc2ccc(N3CCC(CO)CC3)cn2)cs1` belongs 1.5%.
Regarding `Cc1cc(CN(C)C(=O)NCc2ccco2)no1`, the cytotoxicity at 70.5 h was -2.34%.
As to `Cc1noc(C)c1CN(C)C(=O)NC(C)Cc1ccco1` (stereo not drawn), the cytotoxicity at 70.5 h was -1.49%.
To `COc1ccc2c(c1)CN(c1nc(C)cc(C)n1)CC2` belongs 3.73%.
In the case of `CS(=O)(=O)c1ccc2c(c1)N(C(=O)Cc1cccc(F)c1)CCC2`, the cytotoxicity at 70.5 h was -0.9%.
The same measure for `CC(NC(=O)Nc1cnn(CC(N)=O)c1)c1ccc(Cl)s1` (stereo not drawn): -1.05%; for `CCc1ccc(O)c(C(=O)N2CCN(CC(=O)N3CCCCC3)CC2)c1`: 11.8%; for `COCC(C)NC(=O)N(C)Cc1cc(C)on1` (stereo not drawn): -5.5%.
The same measure for `COC(=O)C(CNC(=O)Nc1nncs1)Cc1cccc(C)c1` (stereo not drawn): -3.4%.
To `CC(Cn1cncn1)NC(=O)NCC(C)(C)Cc1ccccc1` (stereo not drawn) belongs -4.62%.
Consider `Cc1ccc(C(C)(C)CNC(=O)NC(C)Cn2cncn2)cc1` (stereo not drawn), for which the cytotoxicity at 70.5 h is -0.962%.
To `CCC(CO)NC(=O)Nc1ccc(OCC(F)(F)F)c(C)c1` (stereo not drawn) belongs -1.78%.
For `CC(C)n1nc2c(cc1=O)CN(Cc1nc(-c3ccco3)no1)CC2`, the cytotoxicity at 70.5 h was -5.7%.
`CC(CO)NC(=O)Nc1ccc(Cl)cc1OCC(F)(F)F` (stereo not drawn): the cytotoxicity at 70.5 h is -4.37%.
The same measure for `Cc1cc(NC(=O)NC(C)CO)ccc1OCC(F)(F)F` (stereo not drawn): -2.25%; for `CN(C(=O)c1ccncc1F)c1ccccc1S(C)(=O)=O`: -1.8%; for `CN(C(=O)c1ccncc1Cl)c1ccccc1S(C)(=O)=O`: 12.1%.
As to `Cc1ccc(CNc2ccc(N3CCC(CO)CC3)cn2)o1`, the cytotoxicity at 70.5 h is -2.34%.
On to `OCC1CCN(c2ccc(NCc3ccsc3)nc2)CC1`, for which the cytotoxicity at 70.5 h is -5.76%.
The same measure for `Cc1cnc(C(=O)N2CCC(COCc3ccccc3)C2)cn1` (stereo not drawn): -2.03%.
As for `Cc1noc(CCCC(=O)NCC(c2ccco2)N2CCCCC2)n1` (stereo not drawn), the cytotoxicity at 70.5 h is -3%.
In the case of `CCN(CC)CCCC(C)NC(=O)c1cccnc1-n1cccn1` (stereo not drawn), the cytotoxicity at 70.5 h was 3.18%.
In the case of `COC(=O)CN(C(=O)c1ccoc1)c1cccc(F)c1`, the cytotoxicity at 70.5 h is -8.55%.
As for `COCCCNc1cc(C(=O)N2CCOCC2)ccc1C`, the cytotoxicity at 70.5 h was -17.5%.
To `Cc1ccc(C(NC(=O)CN2CCc3c(ncn3C)C2)C2CC2)cc1` (stereo not drawn) belongs -16.3%.
For the compound `CC(C)c1nc2cc(NC(=O)Cn3ccc(=O)[nH]c3=O)ccc2o1`, the cytotoxicity at 70.5 h is -8.49%.
To `CS(=O)(=O)N1CCCC(C(=O)N2CCOc3ccccc32)C1` (stereo not drawn) belongs -14.4%; to `CSC(C)(C)CNC(=O)NC1CCC1`, -1.66%; to `CC(=O)NCC(=O)NC1CCc2nccn2C1` (stereo not drawn), 7.09%.
The same measure for `CN(C)c1ncccc1NC(=O)C1CN(Cc2ccccc2)CCO1` (stereo not drawn): -2.14%.
The same measure for `CCCC(NC(=O)c1ccccc1Br)c1nnn[nH]1` (stereo not drawn): -3.33%; for `CCS(=O)(=O)CC(=O)NC1CCc2nccn2C1` (stereo not drawn): -4.08%; for `O=C(O)c1ccn(-c2ccccc2NS(=O)(=O)c2cccc(F)c2)n1`: 7.58%.
In the case of `CC(C)(C)n1cc(NC(=O)C2CN(Cc3ccccc3)CCO2)cn1` (stereo not drawn), the cytotoxicity at 70.5 h is -0.308%.
To `CCCC(NC(=O)c1ccc(OC)cc1C)c1nnn[nH]1` (stereo not drawn) belongs 8.62%; to `CCCC(NC(=O)c1cncc(C)c1)c1nnn[nH]1` (stereo not drawn), 6.22%.
To `CSC(C)(C)CNC(=O)NC1CCN(CC(F)F)CC1` belongs -1.88%.
In the case of `O=C(NC1CCN(c2cccc(OC(F)(F)F)c2)C1=O)C1CCC1` (stereo not drawn), the cytotoxicity at 70.5 h is -2.94%.
To `COc1ccc(C2CCCN2C(=O)NCCCn2cccn2)cc1` (stereo not drawn) belongs -11%; to `CCOCC(=O)NCc1cc(Br)ccc1OC(F)F`, 0.394%.
`CC(C)N(C)CCNC(=O)N1CCN(Cc2ccon2)CC1`: the cytotoxicity at 70.5 h is -5.35%.
To `Cc1cc(C)cc(C(=O)Nc2cccc(CN3CCCC3C(N)=O)c2)c1` (stereo not drawn) belongs 6.78%; to `COc1cccc(Cc2nnc(SCCS(C)(=O)=O)o2)c1`, -8.26%.
To `Cc1cccc(NC(=O)[C@@H]2CCCN2Cc2nc(C)c(C)o2)n1` belongs -9.4%; to `c1nc(N2CCCC(Cn3cncn3)C2)c2ccsc2n1` (stereo not drawn), 38.8%; to `O=C(C1CC1)N1CCN(C(=O)C2CC(=O)N(c3ccccc3Br)C2)CC1` (stereo not drawn), 26.2%.
To `COc1ncccc1CNC(=O)N1CCC(CNC(C)=O)CC1` belongs -8.01%.
As for `CCN1CCC(CNC(=O)Nc2cccnc2OC)CC1`, the cytotoxicity at 70.5 h is -6.19%.
`CCS(=O)(=O)c1ccc(N2CCC(NC(=O)C3CCCCC3)CC2)cc1`: the cytotoxicity at 70.5 h worked out at 0.314%.
To `COc1cccc(S(=O)(=O)CCN2CCN(CCO)CC2)c1` belongs -2.82%; to `Cc1ccc(C)c(NC(=O)Cc2c(C)nc3c(c2C)c(=O)[nH]n3C)c1`, 29.5%.
With `Cc1nn(CCO)c(C)c1CNC1CCc2c(F)cccc21` (stereo not drawn), the cytotoxicity at 70.5 h amounted to 0.27%.
To `Cn1c(C(=O)N2CCC(C(N)=O)C2)c(Cl)c2ccccc21` (stereo not drawn) belongs -5.34%.
The same measure for `Cc1nc2c(c(C)c1CC(=O)Nc1ccccc1F)c(=O)[nH]n2C`: 4.76%; for `CCS(=O)(=O)c1ccc(N2CCC(NC(=O)c3ccccn3)CC2)cc1`: 29%.
Regarding `O=C(NCCc1ccccn1)NC1CCN(c2ccccc2)C1=O` (stereo not drawn), the cytotoxicity at 70.5 h came to 1.75%.
Turning to `Cc1cc(C)n(CC2CCCN2CC(=O)Nc2nncs2)n1` (stereo not drawn), the cytotoxicity at 70.5 h came to 30%.
On to `Cc1cnn(CC2CCCCN2CC(=O)Nc2nncs2)c1` (stereo not drawn), for which the cytotoxicity at 70.5 h was -1.03%.
The same measure for `Cc1cc(C)n(CC2CCCCN2CC(=O)Nc2c(C)n[nH]c2C)n1` (stereo not drawn): 2.06%; for `CC(C)(C)S(=O)(=O)CCNC(=O)NCCCc1cccc(F)c1`: 29%; for `COCCS(=O)(=O)N1CCN(c2cccc(O)c2)CC1`: -2.61%.
Regarding `COC1CCN(C(=O)C2CC(=O)N(c3ccccc3Br)C2)CC1` (stereo not drawn), the cytotoxicity at 70.5 h is -8.26%.
`Cc1cc(C)n(CC2CCCCN2CC(=O)Nc2nccs2)n1` (stereo not drawn): the cytotoxicity at 70.5 h is -5.53%.
The same measure for `CC(C)COCCC(=O)Nc1ccc2oc(=O)n(CCN(C)C)c2c1`: 17.6%; for `CN(C)CCn1c(=O)oc2ccc(NC(=O)CSc3ccccc3)cc21`: 6.5%.
Take `O=C(CCNS(=O)(=O)c1ccc(F)c(F)c1)NCc1ccoc1`: the cytotoxicity at 70.5 h was -3.45%.
Regarding `CCc1ccc(CNC(=O)NC2CCCc3c2cnn3CCO)s1` (stereo not drawn), the cytotoxicity at 70.5 h was -2.75%.
The same measure for `Cc1csc(CNC(=O)NC2CCCc3c2cnn3CCO)n1` (stereo not drawn): -9.89%; for `O=C(NCC1CCCCC1)NC1CCCc2c1cnn2CCO` (stereo not drawn): -7.67%; for `CC(C)(O)CN1CCN(C(=O)c2cnn(-c3ccccc3F)c2)CC1`: -4.5%.
To `Cc1cc(C(=O)Nc2ccc3oc(=O)n(CCN(C)C)c3c2)c(C)o1` belongs 9.45%.
To `Cc1nn(C)c(C)c1C1COCCN1c1ncnc2c(C)cccc12` (stereo not drawn) belongs -6.31%; to `CC1COCCN1c1ncnc2sccc12` (stereo not drawn), 6.87%; to `CC(C)(C)OC(=O)NCCc1csc(N2CCCC2)n1`, -3.27%.
Consider `CCN(CC1CN(Cc2c(C)noc2C)CCO1)c1cccnn1` (stereo not drawn), for which the cytotoxicity at 70.5 h came to 12.5%.
The same measure for `Cc1nn(C)c(C)c1C1CCCN1c1ncnc2sccc12` (stereo not drawn): 3.73%.
The same measure for `CCOc1cccc(C(=O)N(CCC#N)Cc2ccccn2)c1`: -0.366%.
Consider `CCN(CC1CN(Cc2ccn(C(C)C)n2)CCO1)c1cccnn1` (stereo not drawn), for which the cytotoxicity at 70.5 h is 1.41%.
Turning to `Cc1ccc(N2CCCC(NCCCS(C)(=O)=O)C2)nn1` (stereo not drawn), the cytotoxicity at 70.5 h was -7.73%.
To `Clc1cnccc1N1CCCOCC1` belongs -5.38%.
The same measure for `CNC(=O)C1Cc2ccccc2CN1CCC#N` (stereo not drawn): 4.8%; for `COc1ccccc1N(C)S(=O)(=O)c1cc(C(=O)O)cs1`: -4.98%.
The same measure for `CC(C)N1CCC(NC(=O)NC2CCOc3ccc(Br)cc32)CC1` (stereo not drawn): 0.813%; for `Cc1ncc2c(n1)CN(Cc1cccc3c1OCCO3)CC2`: -1.1%; for `COCC(C)(CCO)NC(=O)Nc1cccc(F)c1C` (stereo not drawn): 21.4%.
Turning to `CC(=O)N1CCCC1c1cccc(C)c1C` (stereo not drawn), the cytotoxicity at 70.5 h was -4.04%.
The same measure for `CN(CCCc1n[nH]c(N)c1C#N)C(=O)Nc1cc(Cl)cc(Cl)c1`: -11.9%; for `NC(=O)C1CCCCN1C(=O)c1ccc(Br)s1` (stereo not drawn): -5.06%.
The same measure for `Cc1nn(C)c(C)c1CCC(=O)Nc1nnc(C2CC2)s1`: 22.3%; for `CC(NC(=O)NCCNc1cccc(F)c1C#N)c1cccs1` (stereo not drawn): -4.54%; for `CS(=O)(=O)NCC1CCCCN1C(=O)c1ccc(Br)s1` (stereo not drawn): -6.12%.
`OC1CCN(c2ccc(CNc3nc4ccccc4o3)cc2F)CC1`: the cytotoxicity at 70.5 h is -9.97%.
`CC(CNC(=O)C1(c2ccc(F)cc2)CC1)CN1CCCC1=O` (stereo not drawn): the cytotoxicity at 70.5 h is 15.4%.
As for `OC1CCN(c2ccc(CNc3nc4ccccc4s3)cc2F)CC1`, the cytotoxicity at 70.5 h is -9.14%.
Take `NC(=O)NCC1CCCCN1C(=O)c1ccc(Br)s1` (stereo not drawn): the cytotoxicity at 70.5 h is -8.99%.
To `NC(=O)NCC1CCCCN1C(=O)c1ccc(Cl)s1` (stereo not drawn) belongs -8.02%; to `Cc1c(C(=O)NC2(C#N)CCSC2)nnn1-c1ccccc1Cl` (stereo not drawn), -5.68%; to `CC(NC(=O)NCCNc1cccc(F)c1C#N)c1nccs1` (stereo not drawn), -2.26%.
